Assay results from ChEMBL document CHEMBL1145390, “Synthesis and preliminary biological characterization of new semisynthetic derivatives of ramoplanin” (J Med Chem, 2007).
Converted amounts (≈) assume the structure as drawn.

Tests used:
[1] = test system: Streptococcus pyogenes; assay: Antibacterial activity against Streptococcus pyogenes C203 after 24 hrs by broth microdilution method; format: functional; conditions: C203, 24 h
[2] = test system: Candida albicans; assay: Antifungal activity against Candida albicans SKF-2270 after 24 hrs by broth microdilution method; format: functional
[3] = test system: Enterococcus faecalis; assay: Antibacterial activity against Enterococcus faecalis after 24 hrs by broth microdilution method; format: functional; conditions: read-out: MIC
[4] = test system: Enterococcus faecalis; assay: Antibacterial activity against vancomycin-resistant Enterococcus faecalis in presence of 30% bovine serum after 24 hrs by broth microdilution method; format: functional
[5] = test system: Enterococcus faecium; assay: Antibacterial activity against Enterococcus faecium after 24 hrs by broth microdilution method; format: functional; conditions: read-out: MIC
[6] = test system: Escherichia coli; assay: Antibacterial activity against Escherichia coli SKF-12140 after 24 hrs by broth microdilution method; format: functional
[7] = test system: Staphylococcus aureus; assay: Antibacterial activity against Staphylococcus aureus Smith in presence of 30% bovine serum after 24 hrs by broth microdilution method; format: functional
[8] = test system: Enterococcus faecium; assay: Antibacterial activity against vancomycin A-resistant Enterococcus faecium clinical isolate after 24 hrs by broth microdilution method; format: functional; conditions: read-out: MIC
[9] = test system: Staphylococcus aureus; assay: Antibacterial activity against methicillin-resistant Staphylococcus aureus clinical isolate after 24 hrs by broth microdilution method; format: functional; conditions: read-out: MIC
[10] = test system: Staphylococcus aureus; assay: Antibacterial activity against Staphylococcus aureus Smith after 24 hrs by broth microdilution method; format: functional; conditions: read-out: MIC
[11] = test system: Staphylococcus aureus; assay: Antibacterial activity against vancomycin-intermediate resistant Staphylococcus aureus clinical isolate in presence of 30% bovine serum after 24 hrs by broth microdilution method; format: functional
[12] = test system: Staphylococcus aureus; assay: Antibacterial activity against methicillin-resistant and vancomycin-intermediate resistant Staphylococcus aureus clinical isolate after 24 hrs by broth microdilution method; format: functional
[13] = test system: Enterococcus faecium; assay: Antibacterial activity against vancomycin A-resistant Enterococcus faecium clinical isolate in presence of 30% bovine serum after 24 hrs by broth microdilution method; format: functional
[14] = test system: Enterococcus faecalis; assay: Antibacterial activity against vancomycin A-resistant Enterococcus faecalis after 24 hrs by broth microdilution method; format: functional; conditions: read-out: MIC
[15] = test system: Staphylococcus aureus; assay: Antibacterial activity against vancomycin-intermediate resistant Staphylococcus aureus clinical isolate after 24 hrs by broth microdilution method; format: functional
[16] = Toxicity assessed as hemolysis in erythrocytes at 90 mg/L; format: cell-based, Erythrocyte; conditions: human; for hemolysis at 90 mg/L: erythrocytes, read-out: Activity
[17] = Toxicity assessed as hemolysis in erythrocytes at 180 mg/L; format: cell-based, Erythrocyte; conditions: human; for hemolysis at 180 mg/L: erythrocytes, read-out: Activity

Row | SMILES | MIC ([1]; read-out: MIC) [µg/mL] | MIC ([2]; read-out: MIC) [µg/mL] | MIC [3] [µg/mL] | MIC [5] [µg/mL] | MIC ([6]; read-out: MIC) [µg/mL] | MIC [8] [µg/mL] | MIC [9] [µg/mL] | MIC [10] [µg/mL] | MIC ([12]; read-out: MIC) [µg/mL] | MIC [14] [µg/mL] | MIC [15] [µg/mL] | hemolysis at 90 mg/L [16] [%] | hemolysis at 180 mg/L [17] [%] | also measured
1 | CCc1ccccc1CC(=O)N[C@@H](CC(N)=O)C(=O)N[C@@H]1C(=O)N[C@H](c2ccc(O)cc2)C(=O)N[C@H](CCCN)C(=O)N[C@H]([C@@H](C)O)C(=O)N[C@@H](c2ccc(O)cc2)C(=O)N[C@H](c2ccc(O)cc2)C(=O)N[C@@H]([C@H](C)O)C(=O)N[C@@H](Cc2ccccc2)C(=O)N[C@H](CCCN)C(=O)N[C@@H](c2ccc(O[C@H]3O[C@H](CO)[C@@H](O)[C@H](O)[C@@H]3O[C@H]3O[C@H](CO)[C@@H](O)[C@H](O)[C@@H]3O)cc2)C(=O)N[C@H]([C@@H](C)O)C(=O)N[C@@H](c2ccc(O)cc2)C(=O)NCC(=O)N[C@@H](CC(C)C)C(=O)N[C@H](C)C(=O)N[C@@H](c2ccc(O)c(Cl)c2)C(=O)O[C@@H]1C(N)=O | ≤ 0.125 | > 128 | 0.5 (≈ 0.195 µM) | ≤ 0.06 | > 128 | 0.5 (≈ 0.195 µM) | 0.5 (≈ 0.195 µM) | 0.125 (≈ 0.0488 µM) | 2 (≈ 0.78 µM) | 0.5 (≈ 0.195 µM) | 1 (≈ 0.39 µM) | – | – | MIC [4]: 2 µg/mL; MIC [7]: 1 µg/mL; MIC [11]: 4 µg/mL; MIC [13]: 4 µg/mL
2 | CC(C)C[C@@H]1NC(=O)CNC(=O)[C@H](c2ccc(O)cc2)NC(=O)[C@@H]([C@@H](C)O)NC(=O)[C@H](c2ccc(O[C@H]3O[C@H](CO)[C@@H](O)[C@H](O)[C@@H]3O[C@H]3O[C@H](CO)[C@@H](O)[C@H](O)[C@@H]3O)cc2)NC(=O)[C@@H](CCCN)NC(=O)[C@H](Cc2ccccc2)NC(=O)[C@H]([C@@H](C)O)NC(=O)[C@@H](c2ccc(O)cc2)NC(=O)[C@H](c2ccc(O)cc2)NC(=O)[C@@H](C(C)C)NC(=O)[C@@H](CCCN)NC(=O)[C@@H](c2ccc(O)cc2)NC(=O)[C@@H](CNC(=O)[C@H](CC(N)=O)NC(=O)c2ccc(Cl)cc2)[C@@H](C(N)=O)OC(=O)[C@H](c2ccc(O)c(Cl)c2)NC(=O)[C@@H](C)NC1=O | < 0.03 | > 32 | 0.5 (≈ 0.195 µM) | 0.5 (≈ 0.195 µM) | > 32 | 0.5 (≈ 0.195 µM) | 1 (≈ 0.389 µM) | 0.5 (≈ 0.195 µM) | 4 (≈ 1.56 µM) | 0.5 (≈ 0.195 µM) | 2 (≈ 0.779 µM) | 5 | 13 | –
3 | CCCCCCC(=O)N[C@@H](CC(N)=O)C(=O)NC[C@@H]1C(=O)N[C@H](c2ccc(O)cc2)C(=O)N[C@H](CCCN)C(=O)N[C@H](C(C)C)C(=O)N[C@@H](c2ccc(O)cc2)C(=O)N[C@H](c2ccc(O)cc2)C(=O)N[C@@H]([C@@H](C)O)C(=O)N[C@@H](Cc2ccccc2)C(=O)N[C@H](CCCN)C(=O)N[C@@H](c2ccc(O[C@H]3O[C@H](CO)[C@@H](O)[C@H](O)[C@@H]3O[C@H]3O[C@H](CO)[C@@H](O)[C@H](O)[C@@H]3O)cc2)C(=O)N[C@H]([C@@H](C)O)C(=O)N[C@@H](c2ccc(O)cc2)C(=O)NCC(=O)N[C@@H](CC(C)C)C(=O)N[C@H](C)C(=O)N[C@@H](c2ccc(O)c(Cl)c2)C(=O)O[C@@H]1C(N)=O | < 0.03 | > 32 | 0.5 (≈ 0.197 µM) | 1 (≈ 0.393 µM) | > 32 | 1 (≈ 0.393 µM) | 1 (≈ 0.393 µM) | 1 (≈ 0.393 µM) | 8 (≈ 3.15 µM) | 0.5 (≈ 0.197 µM) | 4 (≈ 1.57 µM) | 2 | 1 | –
4 | CC(C)C[C@@H]1NC(=O)CNC(=O)[C@H](c2ccc(O)cc2)NC(=O)[C@@H]([C@@H](C)O)NC(=O)[C@H](c2ccc(O[C@H]3O[C@H](CO)[C@@H](O)[C@H](O)[C@@H]3O[C@H]3O[C@H](CO)[C@@H](O)[C@H](O)[C@@H]3O)cc2)NC(=O)[C@@H](CCCN)NC(=O)[C@H](Cc2ccccc2)NC(=O)[C@H]([C@@H](C)O)NC(=O)[C@@H](c2ccc(O)cc2)NC(=O)[C@H](c2ccc(O)cc2)NC(=O)[C@@H](C(C)C)NC(=O)[C@@H](CCCN)NC(=O)[C@@H](c2ccc(O)cc2)NC(=O)[C@@H](CNC(=O)[C@H](CC(N)=O)NC(=O)CCCc2ccccc2)[C@@H](C(N)=O)OC(=O)[C@H](c2ccc(O)c(Cl)c2)NC(=O)[C@@H](C)NC1=O | ≤ 0.03 | > 32 | 1 (≈ 0.388 µM) | 2 (≈ 0.776 µM) | > 32 | 2 (≈ 0.776 µM) | 2 (≈ 0.776 µM) | 1 (≈ 0.388 µM) | 8 (≈ 3.11 µM) | 1 (≈ 0.388 µM) | 8 (≈ 3.11 µM) | 0 | 0 | –
5 | CC(C)C[C@@H]1NC(=O)CNC(=O)[C@H](c2ccc(O)cc2)NC(=O)[C@@H]([C@@H](C)O)NC(=O)[C@H](c2ccc(O[C@H]3O[C@H](CO)[C@@H](O)[C@H](O)[C@@H]3O[C@H]3O[C@H](CO)[C@@H](O)[C@H](O)[C@@H]3O)cc2)NC(=O)[C@@H](CCCN)NC(=O)[C@H](Cc2ccccc2)NC(=O)[C@H]([C@@H](C)O)NC(=O)[C@@H](c2ccc(O)cc2)NC(=O)[C@H](c2ccc(O)cc2)NC(=O)[C@@H](C(C)C)NC(=O)[C@@H](CCCN)NC(=O)[C@@H](c2ccc(O)cc2)NC(=O)[C@@H](CNC(=O)[C@H](CC(N)=O)NC(=O)c2ccc(C#N)cc2)[C@@H](C(N)=O)OC(=O)[C@H](c2ccc(O)c(Cl)c2)NC(=O)[C@@H](C)NC1=O | 0.06 (≈ 0.0234 µM) | > 32 | 4 (≈ 1.56 µM) | 8 (≈ 3.13 µM) | > 32 | 4 (≈ 1.56 µM) | 4 (≈ 1.56 µM) | 8 (≈ 3.13 µM) | 32 (≈ 12.5 µM) | 8 (≈ 3.13 µM) | 32 (≈ 12.5 µM) | 2 | 3 | –
6 | CC(C)C[C@@H]1NC(=O)CNC(=O)[C@H](c2ccc(O)cc2)NC(=O)[C@@H]([C@@H](C)O)NC(=O)[C@H](c2ccc(O[C@H]3O[C@H](CO)[C@@H](O)[C@H](O)[C@@H]3O[C@H]3O[C@H](CO)[C@@H](O)[C@H](O)[C@@H]3O)cc2)NC(=O)[C@@H](CCCN)NC(=O)[C@H](Cc2ccccc2)NC(=O)[C@H]([C@@H](C)O)NC(=O)[C@@H](c2ccc(O)cc2)NC(=O)[C@H](c2ccc(O)cc2)NC(=O)[C@@H](C(C)C)NC(=O)[C@@H](CCCN)NC(=O)[C@@H](c2ccc(O)cc2)NC(=O)[C@@H](CNC(=O)[C@H](CC(N)=O)NC(=O)Cc2ccc(Cl)cc2)[C@@H](C(N)=O)OC(=O)[C@H](c2ccc(O)c(Cl)c2)NC(=O)[C@@H](C)NC1=O | ≤ 0.03 | > 32 | 0.5 (≈ 0.194 µM) | 1 (≈ 0.387 µM) | > 32 | 1 (≈ 0.387 µM) | 0.5 (≈ 0.194 µM) | 0.5 (≈ 0.194 µM) | 4 (≈ 1.55 µM) | 0.5 (≈ 0.194 µM) | 2 (≈ 0.774 µM) | 0 | 0 | –
7 | Cc1ccc(CC(=O)N[C@@H](CC(N)=O)C(=O)NC[C@@H]2C(=O)N[C@H](c3ccc(O)cc3)C(=O)N[C@H](CCCN)C(=O)N[C@H](C(C)C)C(=O)N[C@@H](c3ccc(O)cc3)C(=O)N[C@H](c3ccc(O)cc3)C(=O)N[C@@H]([C@@H](C)O)C(=O)N[C@@H](Cc3ccccc3)C(=O)N[C@H](CCCN)C(=O)N[C@@H](c3ccc(O[C@H]4O[C@H](CO)[C@@H](O)[C@H](O)[C@@H]4O[C@H]4O[C@H](CO)[C@@H](O)[C@H](O)[C@@H]4O)cc3)C(=O)N[C@H]([C@@H](C)O)C(=O)N[C@@H](c3ccc(O)cc3)C(=O)NCC(=O)N[C@@H](CC(C)C)C(=O)N[C@H](C)C(=O)N[C@@H](c3ccc(O)c(Cl)c3)C(=O)O[C@@H]2C(N)=O)cc1 | – | – | 0.002 (≈ 0.000781 µM) | 0.004 (≈ 0.00156 µM) | – | 0.002 (≈ 0.000781 µM) | 0.002 (≈ 0.000781 µM) | 0.001 (≈ 0.00039 µM) | – | 0.002 (≈ 0.000781 µM) | 0.008 (≈ 0.00312 µM) | – | – | MIC [1]: 0.06 µg/mL (≈ 0.0234 µM); MIC [2]: > 32 µg/mL; MIC [6]: > 32 µg/mL; Activity ([16]; erythrocyte): 0%; MIC [12]: 8 µg/mL (≈ 3.12 µM); Activity ([17]; erythrocyte): 0%
8 | CC(C)C[C@@H]1NC(=O)CNC(=O)[C@H](c2ccc(O)cc2)NC(=O)[C@@H]([C@@H](C)O)NC(=O)[C@H](c2ccc(O[C@H]3O[C@H](CO)[C@@H](O)[C@H](O)[C@@H]3O[C@H]3O[C@H](CO)[C@@H](O)[C@H](O)[C@@H]3O)cc2)NC(=O)[C@@H](CCCN)NC(=O)[C@H](Cc2ccccc2)NC(=O)[C@H]([C@@H](C)O)NC(=O)[C@@H](c2ccc(O)cc2)NC(=O)[C@H](c2ccc(O)cc2)NC(=O)[C@@H](C(C)C)NC(=O)[C@@H](CCCN)NC(=O)[C@@H](c2ccc(O)cc2)NC(=O)[C@@H](CNC(=O)[C@H](CC(N)=O)NC(=O)Cc2ccc3ccccc3c2)[C@@H](C(N)=O)OC(=O)[C@H](c2ccc(O)c(Cl)c2)NC(=O)[C@@H](C)NC1=O.Cl | ≤ 0.03 | > 32 | 0.125 | 0.25 | > 32 | 0.25 | 0.25 | 0.25 | 1 | 0.125 | 1 | 24 | 59 | –
